Key:
Experiment in all cases: relative viability (nuclei count vs DMSO), 5 days (fraction); higher = more cells survive
[1] = tested on: SW 1573
How it was run: (§1)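 Relative viability is defined as nuclei in treated wells over nuclei in vehicle wells. Duplicate plates were run and medians reported. Lung cancer cell lines in 1536-well plates were dosed by pin tool one day after seeding, with one drug or with a fixed anchor-drug dose plus five library-drug doses (not always all listed) in √10 steps, and nuclei were counted after 5 days.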

[2] = tested on: NCI-H650
How it was run: as §1

[3] = tested on: LU99A
How it was run: as §1

[4] = tested on: HCC-78
How it was run: as §1

[5] = tested on: HARA
How it was run: as §1

[6] = tested on: NCI-H358
How it was run: as §1

[7] = tested on: LC-2-ad
How it was run: as §1

[8] = tested on: NCI-H2023
How it was run: as §1

[9] = tested on: EPLC-272H
How it was run: as §1

[10] = tested on: HCC-15
How it was run: as §1

[11] = tested on: NCI-H2126
How it was run: as §1

[12] = tested on: NCI-H2085
How it was run: as §1

[13] = tested on: NCI-H1651
How it was run: as §1

[14] = tested on: NCI-H2342
How it was run: as §1

[15] = tested on: PC-14
How it was run: as §1

[16] = tested on: NCI-H838
How it was run: as §1

[17] = tested on: COR-L23
How it was run: as §1

[18] = tested on: ABC-1
How it was run: as §1

[19] = tested on: NCI-H1915
How it was run: as §1

[20] = tested on: NCI-H2347
How it was run: as §1

[21] = tested on: NCI-H1355
How it was run: as §1

[22] = tested on: UMC-11
How it was run: as §1

[23] = tested on: NCI-H1993
How it was run: as §1

C=C1C(=O)O[C@@H](CCCCCCCC)[C@@H]1C(=O)O [C-75] + COc1cccc2cc(-c3nc([C@H]4CC[C@H](C(=O)O)CC4)n4ncnc(N)c34)[nH]c12 [OSI-027] (partner 0.5 µM)
relative viability ([1]; first compound 0.08 µM): 0.705 | relative viability ([1]; first compound 0.253 µM): 0.709 | relative viability ([1]; first compound 0.8 µM): 0.555 | relative viability ([1]; first compound 2.53 µM): 0.634 | relative viability ([1]; first compound 8 µM): 0.519 | relative viability ([2]; first compound 0.08 µM): 0.611 | relative viability ([2]; first compound 0.253 µM): 0.401 | relative viability ([2]; first compound 0.8 µM): 0.494 | relative viability ([2]; first compound 2.53 µM): 0.448 | relative viability ([2]; first compound 8 µM): 0.524 | relative viability ([3]; first compound 0.08 µM): 0.328 | relative viability ([3]; first compound 0.253 µM): 0.28 | relative viability ([3]; first compound 0.8 µM): 0.273 | relative viability ([3]; first compound 2.53 µM): 0.252 | relative viability ([3]; first compound 8 µM): 0.325 | relative viability ([4]; first compound 0.08 µM): 0.354 | relative viability ([4]; first compound 0.253 µM): 0.42 | relative viability ([4]; first compound 0.8 µM): 0.376 | relative viability ([4]; first compound 2.53 µM): 0.329 | relative viability ([4]; first compound 8 µM): 0.422 | relative viability ([5]; first compound 0.08 µM): 0.634 | relative viability ([5]; first compound 0.253 µM): 0.587 | relative viability ([5]; first compound 0.8 µM): 0.513 | relative viability ([5]; first compound 2.53 µM): 0.31 | relative viability ([5]; first compound 8 µM): 0.441 | relative viability ([6]; first compound 0.08 µM): 0.714 | relative viability ([6]; first compound 0.253 µM): 0.871 | relative viability ([6]; first compound 0.8 µM): 0.691 | relative viability ([6]; first compound 2.53 µM): 0.383 | relative viability ([6]; first compound 8 µM): 0.624 | relative viability ([7]; first compound 0.08 µM): 0.745 | relative viability ([7]; first compound 0.253 µM): 0.799 | relative viability ([7]; first compound 0.8 µM): 0.747 | relative viability ([7]; first compound 2.53 µM): 0.646 | relative viability ([7]; first compound 8 µM): 0.686 | relative viability ([8]; first compound 0.08 µM): 0.455 | relative viability ([8]; first compound 0.253 µM): 0.558 | relative viability ([8]; first compound 0.8 µM): 0.34 | relative viability ([8]; first compound 2.53 µM): 0.415 | relative viability ([8]; first compound 8 µM): 0.32 | relative viability ([9]; first compound 0.08 µM): 0.271 | relative viability ([9]; first compound 0.253 µM): 0.302 | relative viability ([9]; first compound 0.8 µM): 0.278 | relative viability ([9]; first compound 2.53 µM): 0.227 | relative viability ([9]; first compound 8 µM): 0.235 | relative viability ([10]; first compound 0.08 µM): 0.628 | relative viability ([10]; first compound 0.253 µM): 0.707 | relative viability ([10]; first compound 0.8 µM): 0.655 | relative viability ([10]; first compound 2.53 µM): 0.502 | relative viability ([10]; first compound 8 µM): 0.636 | relative viability ([11]; first compound 0.08 µM): 0.762 | relative viability ([11]; first compound 0.253 µM): 0.757 | relative viability ([11]; first compound 0.8 µM): 0.707 | relative viability ([11]; first compound 2.53 µM): 0.744 | relative viability ([11]; first compound 8 µM): 0.66 | relative viability ([12]; first compound 0.08 µM): 0.882 | relative viability ([12]; first compound 0.253 µM): 0.883 | relative viability ([12]; first compound 0.8 µM): 0.689 | relative viability ([12]; first compound 2.53 µM): 0.757 | relative viability ([12]; first compound 8 µM): 0.73 | relative viability ([13]; first compound 0.08 µM): 0.712 | relative viability ([13]; first compound 0.253 µM): 0.838 | relative viability ([13]; first compound 0.8 µM): 0.768 | relative viability ([13]; first compound 2.53 µM): 0.635 | relative viability ([13]; first compound 8 µM): 0.815 | relative viability ([14]; first compound 0.08 µM): 0.582 | relative viability ([14]; first compound 0.253 µM): 0.656 | relative viability ([14]; first compound 0.8 µM): 0.582 | relative viability ([14]; first compound 2.53 µM): 0.628 | relative viability ([14]; first compound 8 µM): 0.591 | relative viability ([15]; first compound 0.08 µM): 0.774 | relative viability ([15]; first compound 0.253 µM): 0.958 | relative viability ([15]; first compound 0.8 µM): 0.687 | relative viability ([15]; first compound 2.53 µM): 0.767 | relative viability ([15]; first compound 8 µM): 0.856 | relative viability ([16]; first compound 0.08 µM): 0.442 | relative viability ([16]; first compound 0.8 µM): 0.37 | relative viability ([16]; first compound 2.53 µM): 0.36 | relative viability ([16]; first compound 8 µM): 0.404 | relative viability ([17]; first compound 0.08 µM): 0.74 | relative viability ([17]; first compound 0.253 µM): 0.886 | relative viability ([17]; first compound 0.8 µM): 0.767 | relative viability ([17]; first compound 2.53 µM): 0.676 | relative viability ([17]; first compound 8 µM): 0.701 | relative viability ([18]; first compound 0.08 µM): 0.498 | relative viability ([18]; first compound 0.253 µM): 0.587 | relative viability ([18]; first compound 0.8 µM): 0.479 | relative viability ([18]; first compound 2.53 µM): 0.379 | relative viability ([18]; first compound 8 µM): 0.35 | relative viability ([19]; first compound 0.08 µM): 0.656 | relative viability ([19]; first compound 0.253 µM): 0.588 | relative viability ([19]; first compound 0.8 µM): 0.61 | relative viability ([19]; first compound 2.53 µM): 0.382 | relative viability ([19]; first compound 8 µM): 0.588 | relative viability ([20]; first compound 0.08 µM): 0.408 | relative viability ([20]; first compound 0.253 µM): 0.523 | relative viability ([20]; first compound 0.8 µM): 0.44 | relative viability ([20]; first compound 8 µM): 0.478 | relative viability ([21]; first compound 0.08 µM): 0.49 | relative viability ([21]; first compound 0.253 µM): 0.441 | relative viability ([21]; first compound 0.8 µM): 0.391 | relative viability ([21]; first compound 2.53 µM): 0.348 | relative viability ([21]; first compound 8 µM): 0.5 | relative viability ([22]; first compound 0.08 µM): 0.457 | relative viability ([22]; first compound 0.253 µM): 0.579 | relative viability ([22]; first compound 0.8 µM): 0.477 | relative viability ([22]; first compound 2.53 µM): 0.461 | relative viability ([22]; first compound 8 µM): 0.417 | relative viability ([23]; first compound 0.08 µM): 0.558 | relative viability ([23]; first compound 0.253 µM): 0.61 | relative viability ([23]; first compound 0.8 µM): 0.491 | relative viability ([23]; first compound 2.53 µM): 0.539 | relative viability ([23]; first compound 8 µM): 0.589

Reference: the supplement of paper PMC10307832
